One assay concerns the target T1, CFTR ΔF508 mutant (Homo sapiens, UniProt P13569, DEL508-508).
T1 construct: expressed in transfected cells; host or cells: CFBE41o- cells, adenoviral transduction
Put plainly: YFP-halide influx assay for the CFTR-ΔF508 mutation (CFBE41o- cells). As to conditions: forskolin 10.67 μM; for EC50: from (1−F/F0) vs concentration plot. The assay is classed as cell-based. The procedure, abridged:
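EC50 derived from plotting 1−F/F0 (fluorescence 36 s after iodide injection over pre-injection value) against compound concentration. Cells: CFBE41o- transduced with ΔF508-CFTR and YFP quench reporter, corrected 24 h at 27° C or by a CFTR modulator at 37° C.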

The target in a further assay is T2, CFTR G551D mutant (Homo sapiens, UniProt P13569, G551D).
T2 construct: expressed in transfected cells; host or cells: HEK293 cells, reverse transfection with plasmids
Put plainly: YFP-halide influx assay for the CFTR-G551D mutation (HEK293 cells). As to conditions: forskolin 10.67 μM. In kind it is cell-based. The procedure, abridged: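 Channel opening read as I⁻-driven quenching of a YFP H148Q/I152L/F47L reporter over 7 s post-injection, expressed as 1−F/F0 and fitted against concentration for EC50. Cells were HEK293 co-transfected at seeding with G551D CFTR plus reporter, then grown 24 h at 37 °C, 5% CO2.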

T1 sequence (P13569 with tags, fused parts or gaps DEL508-508): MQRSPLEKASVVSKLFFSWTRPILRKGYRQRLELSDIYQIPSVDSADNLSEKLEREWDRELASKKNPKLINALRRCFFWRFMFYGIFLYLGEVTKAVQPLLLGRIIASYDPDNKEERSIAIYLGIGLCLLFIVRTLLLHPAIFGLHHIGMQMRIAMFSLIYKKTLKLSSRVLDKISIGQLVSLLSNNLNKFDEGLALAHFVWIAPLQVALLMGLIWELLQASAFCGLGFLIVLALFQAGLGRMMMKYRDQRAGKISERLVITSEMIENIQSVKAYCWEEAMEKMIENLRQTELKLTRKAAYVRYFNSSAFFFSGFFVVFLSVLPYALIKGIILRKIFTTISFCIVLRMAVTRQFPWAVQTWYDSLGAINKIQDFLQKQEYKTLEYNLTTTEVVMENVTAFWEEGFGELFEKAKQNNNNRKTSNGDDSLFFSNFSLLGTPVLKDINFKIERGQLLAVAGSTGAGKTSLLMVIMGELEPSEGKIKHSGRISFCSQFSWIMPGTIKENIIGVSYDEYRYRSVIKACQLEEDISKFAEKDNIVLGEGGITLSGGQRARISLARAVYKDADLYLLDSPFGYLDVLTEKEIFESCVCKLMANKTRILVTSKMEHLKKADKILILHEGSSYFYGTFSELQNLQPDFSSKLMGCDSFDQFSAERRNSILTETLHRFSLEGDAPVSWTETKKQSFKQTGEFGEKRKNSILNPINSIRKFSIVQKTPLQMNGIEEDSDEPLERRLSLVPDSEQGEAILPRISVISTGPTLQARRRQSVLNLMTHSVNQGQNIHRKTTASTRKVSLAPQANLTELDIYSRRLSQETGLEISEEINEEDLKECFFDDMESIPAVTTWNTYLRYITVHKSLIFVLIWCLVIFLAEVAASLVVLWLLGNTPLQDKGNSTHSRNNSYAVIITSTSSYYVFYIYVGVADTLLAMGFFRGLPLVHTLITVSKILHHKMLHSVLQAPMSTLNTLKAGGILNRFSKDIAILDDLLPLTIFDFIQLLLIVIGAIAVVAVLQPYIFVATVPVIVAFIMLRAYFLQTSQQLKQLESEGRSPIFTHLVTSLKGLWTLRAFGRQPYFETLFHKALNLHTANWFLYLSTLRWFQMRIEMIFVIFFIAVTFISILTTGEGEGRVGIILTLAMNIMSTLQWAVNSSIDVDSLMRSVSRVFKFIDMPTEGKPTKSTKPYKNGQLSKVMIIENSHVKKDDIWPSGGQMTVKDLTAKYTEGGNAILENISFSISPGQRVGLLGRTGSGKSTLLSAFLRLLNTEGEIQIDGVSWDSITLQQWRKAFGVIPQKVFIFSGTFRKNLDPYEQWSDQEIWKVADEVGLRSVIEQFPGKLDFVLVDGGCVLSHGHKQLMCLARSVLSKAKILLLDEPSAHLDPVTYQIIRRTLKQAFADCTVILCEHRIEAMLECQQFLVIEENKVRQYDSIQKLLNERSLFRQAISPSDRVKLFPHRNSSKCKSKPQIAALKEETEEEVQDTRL
T2 sequence (P13569 whole entry G551D): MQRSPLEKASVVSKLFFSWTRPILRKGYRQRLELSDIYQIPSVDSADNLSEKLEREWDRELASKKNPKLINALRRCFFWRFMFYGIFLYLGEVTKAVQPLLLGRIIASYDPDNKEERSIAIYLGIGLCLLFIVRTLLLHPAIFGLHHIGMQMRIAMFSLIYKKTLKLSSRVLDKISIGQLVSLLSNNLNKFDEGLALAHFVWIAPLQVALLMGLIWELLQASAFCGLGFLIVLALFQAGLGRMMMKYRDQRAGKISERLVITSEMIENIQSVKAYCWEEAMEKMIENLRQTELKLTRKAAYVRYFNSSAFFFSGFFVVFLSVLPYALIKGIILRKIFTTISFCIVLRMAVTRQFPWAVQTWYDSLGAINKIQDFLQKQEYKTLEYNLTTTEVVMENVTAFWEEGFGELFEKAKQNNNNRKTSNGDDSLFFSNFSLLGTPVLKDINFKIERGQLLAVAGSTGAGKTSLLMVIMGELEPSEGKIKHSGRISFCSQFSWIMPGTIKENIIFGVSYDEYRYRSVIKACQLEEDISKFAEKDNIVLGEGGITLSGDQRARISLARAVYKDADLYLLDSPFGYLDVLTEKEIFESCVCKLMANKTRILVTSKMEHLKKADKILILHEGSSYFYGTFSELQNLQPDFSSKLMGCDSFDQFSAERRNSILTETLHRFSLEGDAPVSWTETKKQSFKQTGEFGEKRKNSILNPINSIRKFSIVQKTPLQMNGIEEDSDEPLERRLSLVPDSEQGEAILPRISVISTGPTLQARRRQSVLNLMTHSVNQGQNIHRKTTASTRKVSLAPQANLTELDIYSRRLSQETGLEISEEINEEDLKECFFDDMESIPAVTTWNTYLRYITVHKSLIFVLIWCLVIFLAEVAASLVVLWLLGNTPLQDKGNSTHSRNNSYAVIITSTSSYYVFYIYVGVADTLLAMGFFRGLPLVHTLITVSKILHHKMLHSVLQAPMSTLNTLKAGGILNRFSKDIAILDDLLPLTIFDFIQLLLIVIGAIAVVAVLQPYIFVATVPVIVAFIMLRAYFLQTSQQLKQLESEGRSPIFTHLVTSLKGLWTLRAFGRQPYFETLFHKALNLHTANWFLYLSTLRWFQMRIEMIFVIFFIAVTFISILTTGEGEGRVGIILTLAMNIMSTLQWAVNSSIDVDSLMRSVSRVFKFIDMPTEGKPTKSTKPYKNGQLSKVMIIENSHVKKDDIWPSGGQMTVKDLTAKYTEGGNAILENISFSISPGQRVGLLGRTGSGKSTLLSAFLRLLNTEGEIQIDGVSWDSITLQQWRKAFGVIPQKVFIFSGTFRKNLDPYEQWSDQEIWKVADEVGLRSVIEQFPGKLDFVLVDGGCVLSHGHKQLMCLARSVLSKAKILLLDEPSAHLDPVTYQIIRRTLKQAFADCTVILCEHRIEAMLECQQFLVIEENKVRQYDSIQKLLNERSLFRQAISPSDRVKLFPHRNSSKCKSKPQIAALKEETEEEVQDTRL

For `Nc1cc(S(=O)(=O)c2ccc(OC(F)(F)F)cc2F)cnc1C(=O)NC[C@@H](O)C(F)(F)F` [Compound 117, 3-amino-5-{[2-fluoro-4-(trifluoromethoxy)phenyl]sulfonyl}-N-[(2R)-3,3,3-trifluoro-2-hydroxypropyl]pyridine-2-carboxamide], on CFTR ΔF508 mutant, the “% Activation” value is recorded as 107.9% and the midpoint of the response, the EC50, lay at 1.7 nM. Further, at CFTR G551D mutant, the “% Activation” value is recorded as 79.8% and a half-maximal effect (EC50) was put at 218 nM.

Consider `Nc1cc(S(=O)(=O)c2ccc(C(F)(F)F)cc2)cnc1C(=O)N[C@H]1CCC[C@@H]1O` [Compound 215, 3-amino-N-[(1S,2S)-2-hydroxycyclopentyl]-5-{[4-(trifluoromethyl)phenyl]sulfonyl}pyridine-2-carboxamide], for which, at CFTR ΔF508 mutant, the “% Activation” value came to 109.8% and a half-maximal response (EC50) required 8.9 nM. In addition, at CFTR G551D mutant, the “% Activation” value was 57.6% and it took 389 nM to reach a half-maximal effect (EC50).

Turning to `Nc1cc(S(=O)(=O)c2ccc(OC(F)(F)F)cc2)cnc1C(=O)NNC(=O)CO` [Compound 287, 3-amino-N′-(hydroxyacetyl)-5-{[4-(trifluoromethoxy)phenyl]sulfonyl}pyridine-2-carbohydrazide], the “% Activation” value at CFTR ΔF508 mutant is recorded as 83.4%; on CFTR G551D mutant, 24.3%. Besides, the EC50 – broadly, the concentration giving half of the maximal effect – on CFTR ΔF508 mutant amounted to 256 nM.

Take `CC(C)(O)C1CN(C(=O)c2ncc(S(=O)(=O)c3ccc(C(F)(F)F)cc3F)cc2N)C1` [Compound 178, (3-amino-5-{[2-fluoro-4-(trifluoromethyl)phenyl]sulfonyl}pyridin-2-yl)[3-(2-hydroxypropan-2-yl)azetidin-1-yl]methanone]: the “% Activation” value on CFTR ΔF508 mutant worked out at 109.7%; at CFTR G551D mutant, 75.8%. In addition, the figures for the EC50 on CFTR ΔF508 mutant and on CFTR G551D mutant were 5.6 nM and 322 nM, respectively.

Consider `CC(C)NC(=O)CNC(=O)c1ncc(S(=O)(=O)c2ccc(C(F)(F)F)cc2F)cc1N` [Compound 113, 3-amino-5-{[2-fluoro-4-(trifluoromethyl)phenyl]sulfonyl}-N-[2-oxo-2-(propan-2-ylamino)ethyl]pyridine-2-carboxamide], for which, on CFTR ΔF508 mutant, the “% Activation” value is given as 101.9% and a half-maximal effect (EC50) was put at 10.4 nM. Moreover, on CFTR G551D mutant, the “% Activation” value was found to be 41.1% and the response was half-maximal at 297 nM (EC50).

Regarding `CC(C)(C)c1ccc(S(=O)(=O)c2cnc(C(=O)NCC(O)C(F)(F)F)c(N)c2)cc1` (stereo not shown) [Compound 247, 3-amino-5-[(4-tert-butylphenyl)sulfonyl]-N-(3,3,3-trifluoro-2-hydroxypropyl)pyridine-2-carboxamide], at CFTR ΔF508 mutant, the “% Activation” value was determined as 114.5% and the EC50 came to 4.3 nM. Further, at CFTR G551D mutant, the “% Activation” value is given as 98.7% and the EC50 is 219 nM.

As to `Nc1cc(S(=O)(=O)c2ccc(OC(F)(F)F)cc2)cnc1C(=O)NC[C@H](O)COCC1CC1` [Compound 242, 3-amino-N-[(2S)-3-(cyclopropylmethoxy)-2-hydroxypropyl]-5-{[4-(trifluoromethoxy)phenyl]sulfonyl}pyridine-2-carboxamide], at CFTR ΔF508 mutant, the “% Activation” value is 103.0% and a half-maximal effect (EC50) was put at 25.4 nM. Also, at CFTR G551D mutant, the “% Activation” value turned out to be 71.5% and it took 841 nM to reach a half-maximal effect (EC50).

For `Nc1cc(S(=O)(=O)c2ccc(C(F)(F)F)cc2)cnc1C(=O)N1CCC[C@H]1CO` [Compound 226, (3-amino-5-{[4-(trifluoromethyl)phenyl]sulfonyl}pyridin-2-yl)[(2S)-2-(hydroxymethyl)pyrrolidin-1-yl]methanone], on CFTR ΔF508 mutant, the “% Activation” value is listed as 11.9% and the EC50 was above 2000 nM. For the same compound, on CFTR G551D mutant, the “% Activation” value was found to be 1.4% and the EC50 is above 10000 nM.

In the case of `C[C@H]1CCCN1S(=O)(=O)c1cnc(C(=O)N2CC(C(N)=O)C2)c(N)c1` [Compound 271, 1-[(3-amino-5-{[(2S)-2-methylpyrrolidin-1-yl]sulfonyl}pyridin-2-yl)carbonyl]azetidine-3-carboxamide], the “% Activation” value at CFTR ΔF508 mutant was 20.4%; on CFTR G551D mutant it was 2.5%. Moreover, the EC50 on CFTR ΔF508 mutant was above 2000 nM; on CFTR G551D mutant it was above 10000 nM.

In the case of `Nc1cc(S(=O)(=O)c2ccc(OC(F)(F)F)cc2)cnc1C(=O)NCC(O)C(F)F` (stereo not shown) [Compound 279, 3-amino-N-(3,3-difluoro-2-hydroxypropyl)-5-{[4-(trifluoromethoxy)phenyl]sulfonyl}pyridine-2-carboxamide], at CFTR ΔF508 mutant, the “% Activation” value came out at 113.0% and the EC50 was 1.7 nM. On CFTR G551D mutant, the “% Activation” value came out at 57.2% and the EC50 came out at 662 nM.

Take `C[C@H](O)CNC(=O)c1nc(Oc2cccc(F)c2)c(S(=O)(=O)c2ccc(OC(F)(F)F)cc2)cc1N` [Compound 284, 3-amino-6-(3-fluorophenoxy)-N-[(2S)-2-hydroxypropyl]-5-{[4-(trifluoromethoxy)phenyl]sulfonyl}pyridine-2-carboxamide]: on CFTR ΔF508 mutant, the “% Activation” value came to 95.1% and the EC50 stood at 6.3 nM. For the same compound, at CFTR G551D mutant, the “% Activation” value was determined as 67.0% and it took 1620 nM to reach a half-maximal effect (EC50).

As to `CC1(O)CN(C(=O)c2ncc(S(=O)(=O)c3ccc(OC(F)(F)F)cc3)cc2N)C1` [Compound 89, (3-amino-5-{[4-(trifluoromethoxy)phenyl]sulfonyl}pyridin-2-yl)(3-hydroxy-3-methylazetidin-1-yl)methanone], the “% Activation” value is on record as 99.6% at CFTR ΔF508 mutant and 53.6% on CFTR G551D mutant. The values for the EC50 at CFTR ΔF508 mutant and on CFTR G551D mutant were 6.9 nM and above 3330 nM, respectively.

As to `CC(C)S(=O)(=O)c1cc(N)c(C(=O)NC[C@H](C)O)nc1-c1ccc(F)cc1` [Compound 264, 3-amino-6-(4-fluorophenyl)-N-[(2S)-2-hydroxypropyl]-5-(propan-2-ylsulfonyl)pyridine-2-carboxamide], the “% Activation” value is 76.0% on CFTR ΔF508 mutant and 6.51% at CFTR G551D mutant. Also, the results for the EC50 on CFTR ΔF508 mutant and on CFTR G551D mutant were 213 nM and 2000 nM, respectively.

Consider `CC1(C)CN(C(=O)c2ncc(S(=O)(=O)c3ccc(C(F)(F)F)cc3F)cc2N)C1` [Compound 111, (3-amino-5-{[2-fluoro-4-(trifluoromethyl)phenyl]sulfonyl}pyridin-2-yl)(3,3-dimethylazetidin-1-yl)methanone], for which, on CFTR ΔF508 mutant, the “% Activation” value is 103.2% and the midpoint of the response, the EC50, lay at 22.6 nM. In addition, at CFTR G551D mutant, the “% Activation” value turned out to be 99.2% and the EC50 stood at 851 nM.

As for `CC(C)(O)CNC(=O)c1ncc(S(=O)(=O)c2cccc(F)c2)cc1N` [Compound 39, 3-amino-5-[(3-fluorophenyl)sulfonyl]-N-(2-hydroxy-2-methylpropyl)pyridine-2-carboxamide], at CFTR ΔF508 mutant, the “% Activation” value was determined as 42.5% and the EC50 came to 155 nM. Moreover, at CFTR G551D mutant, the “% Activation” value was found to be 5.0% and the EC50 was above 10000 nM.

On to `Nc1cc(S(=O)(=O)c2ccc(F)cc2)cnc1C(=O)NCCC(O)C(F)(F)F` (stereo not shown) [Compound 72, 3-amino-5-[(4-fluorophenyl)sulfonyl]-N-(4,4,4-trifluoro-3-hydroxybutyl)pyridine-2-carboxamide], for which the “% Activation” value was found to be 89.3% at CFTR ΔF508 mutant and 44.2% at CFTR G551D mutant. Besides, the EC50 on CFTR ΔF508 mutant is 21.8 nM; on CFTR G551D mutant, above 3330 nM.

For the compound `C[C@H](O)CNC(=O)c1nc(C2CC2)c(S(=O)(=O)c2ccc(F)cc2)cc1N` [Compound 274, 3-amino-6-cyclopropyl-5-[(4-fluorophenyl)sulfonyl]-N-[(2S)-2-hydroxypropyl]pyridine-2-carboxamide], on CFTR ΔF508 mutant, the “% Activation” value came to 111.0% and the EC50 worked out at 6.9 nM. Besides, at CFTR G551D mutant, the “% Activation” value was 69.5% and the EC50 is above 3330 nM.
